We go through 13 compounds from patent US20080214518A1, “Pharmaceutical Composition Comprising an Anti-Bacterial Agent and an Active Ingredient Selected From Carveol, Thymol, Eugenol, Borneol and Carvacrol” (priority 2005, published 2008).

For test [1], the system named is Mycobacterium fleii. Description: Static tests to determine MIC and MBC. The test is classed as cell-based. The note with it: for MIC: antibiotic alone, exponential growth phase.
The subject of test [2] is Mycobacterium fortuitum. Nature of the test: Static tests to determine MIC and MBC. Particulars: Mycolicibacterium fortuitum; for MIC: antibiotic alone, exponential growth phase. The class given is cell-based.
The subject of test [3] is resistant mycobacterial strains isolated in a veterinary environment. Description: Static MIC/MBC tests, potentiation over tested mycobacterial strains. Particulars: antibiotic combined with carvacrol or thymol at 0.3 mg/ml. The class given is cell-based.
In test [4] the test system is Bacillus subtilis. Description: Static tests to determine MIC and MBC. The test is classed as cell-based. Particulars: exponential growth phase; for MIC: antibiotic alone; for MBC: first substance alone. As to the method:
(§1) The experiment was carried out with several Gram-negative and Gram-positive bacterial strains with different susceptibilities isolated in the hospital environment.
(§2) Antibacterial pharmaceutical compositions according to the invention were prepared by mixing amoxicillin at different concentrations with carveol at a sub-inhibitory concentration of 0.3 g per liter of solution or excipient (equivalent to 0.3 mg/ml). The minimal concentration of amoxicillin in combination with carveol 0.3 mg/ml that produced a bactericidal effect was determined. In each case, antibiotic activity was determined either with amoxicillin alone, or with carveol alone, or with the composition of the invention.
(§3) The experiment was carried out with several resistant bacterial strains isolated in the hospital environment. The antibiotic used was ampicillin, from the beta-lactam family, which is one of the most widely used antibiotics. An antibiotic pharmaceutical composition according to the invention was prepared by mixing ampicillin at different concentrations with carveol at a sub-inhibitory concentration of 0.3 g per liter of solution or excipient. This pharmaceutical composition of the invention was named Ampi-P, for potentiated ampicillin. In each case, antibiotic activity was determined either with ampicillin alone, or with carveol alone, or with the composition of the invention.
(§4) The experiment was carried out with several resistant bacterial strains isolated in the hospital environment. The antibiotic used was cephazolin, from the cephalosporin family, another class of beta-lactams which are among the most widely used antibiotics. An antibiotic pharmaceutical composition according to the invention was prepared by mixing cephazolin at different concentrations with alpha-ionone and beta-ionone at a sub-inhibitory concentration of 0.3 g per liter of solution or excipient. This pharmaceutical composition of the invention was named Cepha-P, for potentiated cephazolin. In each case, antibiotic activity was determined either with cephazolin alone, or with alpha-ionone or beta-ionone alone, or with the composition of the invention.
as §3, with “polymyxin B,” for “ampicillin,”, “peptide” for “beta-lactam”, “oldest” for “most widely used”, “polymyxin B” for “ampicillin”, “Polymix-P,” for “Ampi-P,”, “polymyxin B.” for “ampicillin.”
as §3, with “chloramphenicol,” for “ampicillin,”, “phenicol” for “beta-lactam”, “oldest” for “most widely used”, “chloramphenicol” for “ampicillin”, “Chloram-P,” for “Ampi-P,”, “chloramphenicol.” for “ampicillin.”
(§5) The experiment was carried out with several resistant bacterial strains isolated in the hospital environment. The antibiotic used was chlortetracycline, one of the oldest antibiotics. An antibiotic pharmaceutical composition according to the invention was prepared by mixing chlortetracycline at different concentrations with carveol at a sub-inhibitory concentration of 0.3 g per liter of solution or excipient.

Test [5] has as its system Escherichia coli. Nature of the test: Static tests to determine MIC and MBC. The test is classed as cell-based. The note with it: exponential growth phase; for MIC: antibiotic alone; for MBC: first substance alone. As to the method: as §1, §2, §3, §4
as §3, with “polymyxin B,” for “ampicillin,”, “peptide” for “beta-lactam”, “oldest” for “most widely used”, “polymyxin B” for “ampicillin”, “Polymix-P,” for “Ampi-P,”, “polymyxin B.” for “ampicillin.”
as §3, with “chloramphenicol,” for “ampicillin,”, “phenicol” for “beta-lactam”, “oldest” for “most widely used”, “chloramphenicol” for “ampicillin”, “Chloram-P,” for “Ampi-P,”, “chloramphenicol.” for “ampicillin.”
as §5

Test [6] relates to Salmonella typhimurium. Nature of the test: Static tests to determine MIC and MBC. Particulars: exponential growth phase; for MIC: antibiotic alone; for MBC: first substance alone. The class given is cell-based. How it is done:
as §1, §2, §3, §4
as §3, with “polymyxin B,” for “ampicillin,”, “peptide” for “beta-lactam”, “oldest” for “most widely used”, “polymyxin B” for “ampicillin”, “Polymix-P,” for “Ampi-P,”, “polymyxin B.” for “ampicillin.”
as §3, with “chloramphenicol,” for “ampicillin,”, “phenicol” for “beta-lactam”, “oldest” for “most widely used”, “chloramphenicol” for “ampicillin”, “Chloram-P,” for “Ampi-P,”, “chloramphenicol.” for “ampicillin.”
as §5

The test system of test [7] is Staphylococcus epidermidis. Nature of the test: Static tests to determine MIC and MBC. The class given is cell-based. The note with it: exponential growth phase; for MIC: antibiotic alone; for MBC: first substance alone. How it is done:
as §1
Antibacterial pharmaceutical compositions according to the invention were prepared by mixing amoxicillin at different concentrations with carveol at a sub-inhibitory concentration of 0.3 g per liter of solution or excipient (equivalent to 0.3 mg/ml). The minimal concentration of amoxicillin in combination with carveol 0.3 mg/ml that produced a bactericidal effect was determined. In each case, antibiotic activity was determined either with amoxicillin alone, or with carveol alone, or with the composition of the invention. […]

Test [8] concerns amoxicillin-resistant Klebsiella pneumoniae. Description: In vivo test in mice experimentally infected by intraperitoneal injection. The note with it: organs of mice which died during the experiment; amoxicillin alone 10 mg/kg/day by gavage. How it is done: Groups of 10 mice were experimentally infected by intraperitoneal injection of 1,000,000 cells (colony-forming units) of amoxicillin-resistant Klebsiella pneumoniae.
The first group was composed of control mice which were infected and untreated.
The second group was composed of infected mice treated by gavage, 24 h post-infection, with amoxicillin alone at a dose of 10 mg/kg of body weight/day.
The third group was composed of infected mice treated by gavage, 24 h post-infection, with carveol alone at a dose of 120 mg/kg of body weight/day.
The fourth group was composed of infected mice treated by gavage, 24 h post-infection, with the pharmaceutical composition of the invention (AMOX-P) at a dose of 2 mg/kg of body weight/day of amoxicillin and 120 mg/kg of body weight/day of carveol.
The survival rate was measured over time. […] All the other mice died between the second and third day post-infection.

Test [9] relates to Escherichia coli strains susceptible to 5 μg/ml amoxicillin. The test is classed as cell-based. How it is done:
Escherichia coli strains susceptible to 5 μg/ml amoxicillin were cultured in the presence of a sub-inhibitory concentration of 3 μg/ml, then seeded into nutrient medium (Muller Hinton) containing increasing concentrations of amoxicillin (4 then 5 then 6 μg/ml . . . ). The same procedure was carried out with amoxicillin potentiated by carvacrol at a concentration two times lower than the MIC of carvacrol alone, namely 500 μg/ml. This experiment was based on the principle that at each subcloning, a mutant resistant to the new amoxicillin concentration would multiply, giving rise to a strain more resistant than the strain from which the subcloning arose.

The test system of test [10] is Staphylococcus aureus. Nature of the test: Static tests to determine MIC and MBC. The test is classed as cell-based. The note with it: Staphylococcus aureus; antibiotic alone; exponential growth phase. As to the method: as §1, §2
(§6) The experiment was carried out with several resistant bacterial strains isolated in the hospital environment. The antibiotic used was chlortetracycline, one of the oldest antibiotics. An antibiotic pharmaceutical composition according to the invention was prepared by mixing chlortetracycline at different concentrations with carveol at a sub-inhibitory concentration of 0.3 g per liter of solution or excipient. […] In each case, antibiotic activity was determined either with chlortetracycline alone, or with carveol alone, or with the composition of the invention.
as §6, with “streptomycin, an important member” for “chlortetracycline, one”, “aminoside family which is among the most important” for “oldest”, “streptomycin” for “chlortetracycline”
as §6, with “erythromycin, an important member” for “chlortetracycline, one”, “macrolide family which is among the most important” for “oldest”, “erythromycin” for “chlortetracycline”

Test [11] deals with bacterial strains isolated in the hospital environment. Description: Static MIC/MBC tests, potentiation over all tested strains. The test is classed as cell-based. The note with it: antibiotic combined with carveol, alpha-ionone or beta-ionone at 0.3 mg/ml. As to the method:
as §1, §2
The experiment was carried out with several resistant bacterial strains isolated in the hospital environment. The antibiotic used was ampicillin, from the beta-lactam family, which is one of the most widely used antibiotics. […] In each case, antibiotic activity was determined either with ampicillin alone, or with carveol alone, or with the composition of the invention.
The experiment was carried out with several resistant bacterial strains isolated in the hospital environment. […] In each case, antibiotic activity was determined either with cephazolin alone, or with alpha-ionone or beta-ionone alone, or with the composition of the invention.
The experiment was carried out with several resistant bacterial strains isolated in the hospital environment. […] This pharmaceutical composition of the invention was named Polymix-P, for potentiated polymyxin B. In each case, antibiotic activity was determined either with polymyxin B alone, or with carveol alone, or with the composition of the invention.
The experiment was carried out with several resistant bacterial strains isolated in the hospital environment. […] In each case, antibiotic activity was determined either with chloramphenicol alone, or with carveol alone, or with the composition of the invention. […]

Setting [12] is: Bacillus subtilis, read-out: MIC.
Where [13] appears, read: Escherichia coli, read-out: MIC.
Setting [14] is: Salmonella enterica, TYPHIMURIUM, read-out: MIC.
Setting [15] is: Staphylococcus epidermidis, read-out: MIC.
Where [16] appears, read: starting from 3 μg/ml, potentiated: carvacrol 500 μg/ml.

In brackets after ≈: the same amount, converted by molar mass. Like-named read-outs stand apart in the source and are kept apart here.

In the case of `NNC(=O)c1ccncc1` [Isoniazide, isoniazide], the minimal inhibitory concentration (MIC) in [1] and in [2] was greater than 50 µg/mL in each case. The “times lower antibiotic concentration producing bactericidal activity versus antibiotic alone” value in test [3] is listed as “at least 25 times”.

For the compound `Cc1ccc(C(C)C)cc1O` [Carvacrol, carvacrol], the minimum bactericidal concentration (MBC) in test [1] and in [2] was 1000 µg/mL (≈ 6.66 mM) each time.

For the compound `CC1(C)S[C@@H]2[C@H](NC(=O)[C@H](N)c3ccccc3)C(=O)N2[C@H]1C(=O)O` [Ampicillin, ampicillin], the MIC in test [4] (setting [12]), in test [5] (setting [13]), in test [6] (setting [14]) and in test [7] (setting [15]) was greater than 50 µg/mL in each case.

As to `CC1(C)S[C@@H]2[C@H](NC(=O)[C@H](N)c3ccc(O)cc3)C(=O)N2[C@H]1C(=O)O` [Amoxicillin, amoxicillin], the “Klebsiella pneumoniae loads in kidney, lung and bone marrow” value in test [8] is “high loads”. In addition, the “Final conc. (to which resistant mutants were selected)” value in test [9] (50 μg/ml was the highest concentration in the experiment) worked out at 50 µg/mL. In addition, in test [9] (starting from 3 μg/ml), the “No. of subclonings (to reach final conc.)” value was found to be 9. For the same compound, in [9] (setting [16]), the “Median conc. (to which resistant mutants were selected)” value is 17 µg/mL and the “No. of subclonings (to reach median conc.)” value was found to be 4.

`CC(=O)/C=C/C1=C(C)CCCC1(C)C` [Beta-ionone, beta-ionone]: the minimal bactericidal concentration (MBC) in test [4], in test [5], in [6] and in test [7] was 2000 µg/mL throughout.

`CO[C@H]1/C=C/O[C@@]2(C)Oc3c(C)c(O)c4c(O)c(c(/C=N/N5CCN(C)CC5)c(O)c4c3C2=O)NC(=O)/C(C)=C\C=C\[C@H](C)[C@H](O)[C@@H](C)[C@@H](O)[C@@H](C)[C@H](OC(C)=O)[C@@H]1C` [Rifampicin, rifampicin]: the minimum inhibitory concentration (MIC) in test [1] and in [2] was greater than 75 µg/mL each time. The “times lower antibiotic concentration producing bactericidal activity versus antibiotic alone” value in test [3] is recorded as “at least 25 times”.

For `CN(C)[C@@H]1C(O)=C(C(N)=O)C(=O)[C@@]2(O)C(O)=C3C(=O)c4c(O)ccc(Cl)c4[C@@](C)(O)[C@H]3C[C@@H]12` [Chlortetracycline, chlortetracycline], the MIC in test [4] (setting [12]), in [5] (setting [13]), in [6] (setting [14]) and in test [10] was greater than 50 µg/mL throughout.

For `Cc1nnc(SCC2=C(C(=O)O)N3C(=O)[C@@H](NC(=O)Cn4cnnn4)[C@H]3SC2)s1` [Cephazolin, cephazolin], the minimum inhibitory concentration (MIC) in [4], in [5], in test [6] and in [7] was greater than 50 µg/mL in each case. For the same compound, in [11], the “times lower antibiotic concentration producing bactericidal activity versus antibiotic alone” value is recorded as “at least ten”.

On to `CC[C@H]1OC(=O)[C@H](C)[C@@H](O[C@H]2C[C@@](C)(OC)[C@@H](O)[C@H](C)O2)[C@H](C)[C@@H](O[C@@H]2O[C@H](C)C[C@H](N(C)C)[C@H]2O)[C@](C)(O)C[C@@H](C)C(=O)[C@H](C)[C@@H](O)[C@]1(C)O` [Erythromycin, erythromycin], for which the MIC in [4] (setting [12]), in [5] (setting [13]), in test [6] (setting [14]) and in test [10] was greater than 50 µg/mL each time. Moreover, the “times lower antibiotic concentration producing bactericidal activity versus antibiotic alone” value in [11] is listed as “two to five”.

Take `[H]/N=C(/N)N[C@H]1[C@H](O)[C@@H](O)[C@H](O[C@@H]2O[C@@H](C)[C@](O)(C=O)[C@H]2O[C@@H]2O[C@@H](CO)[C@H](O)[C@@H](O)[C@@H]2NC)[C@@H](N/C(N)=N\[H])[C@@H]1O` [Streptomycin, streptomycin]: the MIC in test [4] (setting [12]), in test [5] (setting [13]), in [6] (setting [14]) and in [10] was greater than 50 µg/mL throughout. Besides, the “times lower antibiotic concentration producing bactericidal activity versus antibiotic alone” value in test [11] is “at least 10 times”.

On to `CC(=O)/C=C/C1C(C)=CCCC1(C)C` (stereo not drawn) [Alpha-ionone, alpha-ionone], for which the MBC in test [4], in test [5], in test [6] and in [7] was 2000 µg/mL in each case.

In the case of polymyxin B, the MIC is greater than 50 µg/mL in test [4], greater than 50 µg/mL in [5], 25 µg/mL in test [6] and greater than 50 µg/mL in [7].

For the compound `O=C(N[C@H](CO)[C@H](O)c1ccc([N+](=O)[O-])cc1)C(Cl)Cl` [Chloramphenicol, chloramphenicol], the minimal inhibitory concentration (MIC) in test [4] (setting [12]), in [5] (setting [13]), in test [6] (setting [14]) and in test [7] (setting [15]) was greater than 50 µg/mL in each case.
